Laboratory results from patent publication US7064139B2, “Method for treating retroviral infections” (Uniroyal Chemical Company, Inc., priority 2001, dated 2006).
≈ marks a conversion by molar mass, not a printed value. Read-outs that look alike come from different tables or passages of the source.

Tests used:
HIV-1 (IIIB) = assay: microbe, parasite or virus in culture; format: cell-based; details: for EC50: Human immunodeficiency virus 1, IIIB, CCRF-CEM, read-out: EC50 (ug/ml) HIV-1; for HIV-1 % Protection: protection of CEM cells against virus-induced cytopathicity at the concentration in the previous column
Excerpt: (§1) The cell type used to determine activity of the compounds of the invention herein, i.e., the test compounds, against HIV was human T-lymphoblast (CEM) cells obtained from the American Tissue Cell Culture Collection (Rockville, Md.). HIV-1 (IIIB) was originally obtained from the culture of persistently HIV-1 infected H9 cells and was provided by R. C. Gallo and M. Popovic (National Cancer Institute, National Institutes of Health, Bethesda, Md.). HIV-2 (ROD) was originally obtained from L. M. Montagnier (Pasteur Institute, Paris, France).
(§2) To determine the antiviral activity of the test compounds, CEM cells were suspended at a cell density of approximately 300,000 cells per ml of culture medium and infected with approximately 100 CCID50 (100 CCID50 being the 50% cell culture infective dose) of HIV-1 (IIIB) or HIV-2 (ROD)). Then 100 μl of the infected cell suspensions was added to 200 μl micro titer plate wells containing 100 μl of appropriate serial (5-fold) dilutions of the test compounds. The inhibitory effect of the test compounds on HIV-1 or HIV-2 syncytium formation in CEM cells was examined microscopically on day four post infection.
(§3) In these cases, the percent protection of the cells against virus-induced cytopathicity by the test compounds at the indicated compound concentration in the previous column is given.

HIV-2 (ROD) = assay: Inhibition of HIV-2 syncytium formation in CEM cells; format: cell-based; details: for EC50: Human immunodeficiency virus 2, CCRF-CEM, read-out: EC50 (ug/ml) HIV-2; for HIV-2 % Protection: protection of CEM cells against virus-induced cytopathicity at the concentration in the previous column
Excerpt: as §1, §2, §3

Davis strain CMV = assay: Reduction of CMV-induced cytopathicity in HEL cells; format: cell-based, human cytomegalovirus (HCMV); details: for Antiviral % Inhibition Davis strain CMV: estimate of percent protection at the concentration in the previous column; for EC50: read-out: Antiviral EC50 (ug/ml) Davis strain CMV
Protocol: Confluent HEL cells grown in […] microtiter plates were inoculated with CMV at an input of 100 PFU (plaque forming units) per well. After a one to two hour incubation period, residual virus was removed and the infected cells were further incubated with MEM (Minimal Essential Medium) (supplemented with 2% inactivated Fetal Calf Serum (FCS), […], and 0.3% sodium bicarbonate) containing varying concentrations of the test compounds. Antiviral activity was expressed as EC50 (50% effective concentration), or test compound concentration required to reduce virus-induced cytopathicity after seven days by 50% compared to the untreated control.
In some cases, the compounds had considerable cytotoxicity against HEL cells, which made determination of the EC50 difficult. In these cases, an estimate of the percent protection at the compound concentration indicated in the previous columns is given.

[1] = CEM cells, syncytium formation, day four post infection
[2] = Human betaherpesvirus 5, 168 h, HEL cells, virus-induced cytopathicity after seven days
[3] = HEL cells, virus-induced cytopathicity after seven days

| Structure (SMILES) | EC50 (HIV-1 (IIIB); [1]) [µg/mL] | EC50 (HIV-2 (ROD); [1]) [µg/mL] | Antiviral % Inhibition Davis strain CMV (Davis strain CMV; HEL cells) [%] | EC50 (Davis strain CMV; [2]) [µg/mL] | EC50 (ug/ml) HIV-1 (HIV-1 (IIIB); [1]) | HIV-1 % Protection (HIV-1 (IIIB)) [%] | EC50 (ug/ml) HIV-2 (HIV-2 (ROD); [1]) | HIV-2 % Protection (HIV-2 (ROD)) [%] | Antiviral EC50 (ug/ml) Davis strain CMV (Davis strain CMV; [3]) [µg/mL] | EC50 (HIV-1 (IIIB)) [µg/mL] | EC50 (HIV-2 (ROD)) [µg/mL] | EC50 (Davis strain CMV; Human betaherpesvirus 5, HEL, 168 h) [µg/mL] |
| --- | --- | --- | --- | --- | --- | --- | --- | --- | --- | --- | --- | --- |
| O=[N+]([O-])c1cc(CS(=O)(=O)c2cccc[n+]2[O-])ccc1Cl [Compound 64, 2-[[(4-chloro-3-nitrophenyl)methyl]sulfonyl]-pyridine-1-oxide] | 1.5 (≈ 4.56 µM) | 1.9 (≈ 5.78 µM) | 10.0 | > 5 | – | – | – | – | – | – | – | – |
| Cc1cccc(CSc2cccc[n+]2C)c1.[Cl-] [Compound 142] | – | – | – | – | >4 µg/mL | 0.0 | >4 µg/mL | 0.0 | 3.4 | – | – | – |
| COc1ccc(CS(=O)(=O)c2cc(C(C)(C)C)cc[n+]2[O-])cc1 [Compound 135] | – | – | – | – | >20 µg/mL | 0.0 | >20.00 µg/mL | 0.0 | 12.5 | – | – | – |
| Cc1ccc(C)c(C[S+]([O-])c2ccc(Cl)c[n+]2[O-])c1 (centres unmarked) [Compound 153] | – | – | – | – | 2.10 µg/mL (≈ 7.1 µM) | – | 3.0 µg/mL (≈ 10.1 µM) | – | 11.5 | – | – | – |
| COc1ccc(C[S+]([O-])c2cccc[n+]2[O-])cc1OC (centres unmarked) [Compound 98] | – | – | – | – | >.8 µg/mL | 0.0 | >0.8 µg/mL | 0.0 | 10.0 | – | – | – |
| O=S(=O)(Cc1ccccc1I)c1cccc[n+]1[O-] [Compound 44] | – | – | 20.0 | – | 5.30 µg/mL (≈ 14.1 µM) | – | 3.4 µg/mL (≈ 9.06 µM) | – | >20 | – | – | – |
| O=[N+]([O-])c1cc(CS(=O)(=O)c2cccc[n+]2[O-])cc([N+](=O)[O-])c1 [Compound 65] | – | – | – | – | 2.80 µg/mL (≈ 8.25 µM) | – | 3.5 µg/mL (≈ 10.3 µM) | – | 5.0 | – | – | – |
| Cc1ccc(C)c(C(C)S(=O)(=O)c2cccc[n+]2[O-])c1 (centres unmarked) [Compound 9, 2-(1-[2,5-Dimethylphenyl]ethylsulfonyl)pyridine N-oxide] | ≥ 100 | > 100 | 0.0 | > 50 | – | 37.5 | – | 0.0 | – | – | – | – |
| Cc1ccccc1CS(=O)(=O)c1c(C)ccc[n+]1[O-] [Compound 82] | – | – | 0.0 | – | 9.30 µg/mL (≈ 33.5 µM) | – | ≧20 ug/ml | 37.5 | >5 | – | – | – |
| CCCCCCCC(c1cc(C)ccc1C)S(=O)(=O)c1cccc[n+]1[O-] (centres unmarked) [Compound 7, 2-[1-(2,5-Dimethylphenyl)octylsulfonyl]pyridine N-oxide] | > 0.8 | > 0.8 | – | 0.7 (≈ 1.86 µM) | – | 0.0 | – | 0.0 | – | – | – | – |
| CC(c1ccccc1)[S+]([O-])c1cccc[n+]1[O-] (centres unmarked) [Compound 102, 2-(1-Phenylethylsulfinyl)pyridine N-oxide] | > 0.8 | > 0.8 | – | 4.3 (≈ 17.4 µM) | – | 0.0 | – | 0.0 | – | – | – | – |
| Cc1ccc(C)c(C(Cl)S(=O)(=O)c2c(Cl)ccc[n+]2[O-])c1 (centres unmarked) [Compound 125] | – | – | – | – | >4 µg/mL | 0.0 | >4.0 µg/mL | 0.0 | 31.5 | – | – | – |
| COc1ccc([N+](=O)[O-])cc1CS(=O)(=O)c1cccc[n+]1[O-] [Compound 20] | – | – | – | – | 7.00 µg/mL (≈ 21.6 µM) | – | 13.0 µg/mL (≈ 40.1 µM) | – | 13.0 | – | – | – |
| O=[N+]([O-])c1ccc(CS(=O)(=O)c2cccc[n+]2[O-])c(Cl)c1 [Compound 69] | – | – | 20.0 | – | 2.90 µg/mL (≈ 8.82 µM) | – | 2.9 µg/mL (≈ 8.82 µM) | – | >5 | – | – | – |
| O=S(=O)(Cc1ccccc1)c1ccccn1 [Compound 143] | – | – | 0.0 | – | 30.00 µg/mL (≈ 129 µM) | – | 50.0 µg/mL (≈ 214 µM) | – | >50 | – | – | – |
| [O-][n+]1ccccc1[S+]([O-])Cc1ccc2c(c1)OCO2 (centres unmarked) [Compound 96] | – | – | 0.0 | – | 20.00 µg/mL (≈ 72.1 µM) | – | 12.0 µg/mL (≈ 43.3 µM) | – | >50 | – | – | – |

| Structure (SMILES) | EC50 (HIV-1 (IIIB); [1]) [µg/mL] | EC50 (HIV-2 (ROD); [1]) [µg/mL] | Antiviral % Inhibition Davis strain CMV (Davis strain CMV; HEL cells) [%] | EC50 (Davis strain CMV; [2]) [µg/mL] | EC50 (ug/ml) HIV-1 (HIV-1 (IIIB); [1]) | HIV-1 % Protection (HIV-1 (IIIB)) [%] | EC50 (ug/ml) HIV-2 (HIV-2 (ROD); [1]) | HIV-2 % Protection (HIV-2 (ROD)) [%] | Antiviral EC50 (ug/ml) Davis strain CMV (Davis strain CMV; [3]) [µg/mL] | EC50 (HIV-1 (IIIB)) [µg/mL] | EC50 (HIV-2 (ROD)) [µg/mL] | EC50 (Davis strain CMV; Human betaherpesvirus 5, HEL, 168 h) [µg/mL] |
| --- | --- | --- | --- | --- | --- | --- | --- | --- | --- | --- | --- | --- |
| O=[N+]([O-])c1ccccc1CS(=O)(=O)c1cccc[n+]1[O-] [Compound 42] | – | – | 10.0 | – | 8.00 µg/mL (≈ 27.2 µM) | – | ≧4 ug/ml | 37.5 | >5 | – | – | – |
| O=S(=O)(Cc1ccccc1F)c1cccc[n+]1[O-] [Compound 22] | – | – | – | – | 12.00 µg/mL (≈ 44.9 µM) | – | 6.3 µg/mL (≈ 23.6 µM) | – | 7.0 | – | – | – |
| COc1ccc(C=C(C#N)Sc2cccc[n+]2[O-])cc1 [Compound 159] | – | – | – | – | >20 µg/mL | 0.0 | >20 µg/mL | 25.0 | 10.0 | – | – | – |
| Cc1ccc[n+]([O-])c1S(=O)(=O)Cc1c(Cl)cccc1Cl [Compound 139] | – | – | – | – | >20 µg/mL | 0.0 | >20.00 µg/mL | 0.0 | 43.0 | – | – | – |
| Cc1ccc(C)c(CSc2ccccn2)c1 [Compound 148, 2-((2,5-dimethylphenyl)methylthio)pyridine] | – | – | – | – | – | – | – | – | – | > 20 | > 20 | 0.4 (≈ 1.74 µM) |
| CC(C)Cc1ccc(CS(=O)(=O)c2cccc[n+]2[O-])cc1 [Compound 55] | – | – | – | – | ≧4 ug/ml | 37.5 | 2.6 µg/mL (≈ 8.51 µM) | – | 3.2 | – | – | – |
| [O-][n+]1cccc(Cl)c1SCc1ccccc1 [Compound 132] | – | – | 0.0 | – | 2.40 µg/mL (≈ 9.53 µM) | – | >20.00 µg/mL | 0.0 | >50 | – | – | – |
| Cc1ccc(CS(=O)(=O)c2cccc[n+]2[O-])c(C)c1 [Compound 52] | – | – | – | – | 6.00 µg/mL (≈ 21.6 µM) | – | 6.5 µg/mL (≈ 23.4 µM) | – | 12.0 | – | – | – |
| Cc1ccc(C)c(C[S+]([O-])c2cccc[n+]2[O-])c1C (centres unmarked) [Compound 97, 2-(2,3,6-Trimethylphenylmethylsulfinyl)pyridine N-oxide] | > 0.8 | > 0.8 | – | 11 (≈ 39.9 µM) | – | 0.0 | – | 0.0 | – | – | – | – |
| Cc1cccc(CS(=O)(=O)c2cccc[n+]2[O-])c1 [Compound 27] | – | – | – | – | 2.40 µg/mL (≈ 9.11 µM) | – | 9.0 µg/mL (≈ 34.2 µM) | – | 16.0 | – | – | – |
| Cc1ccc(C)c(C(C)S(=O)(=O)c2c(Cl)ccc[n+]2[O-])c1 (racemic) [Compound 124] | – | – | 10.0 | – | >.8 µg/mL | 0.0 | >0.80 µg/mL | 0.0 | >5 | – | – | – |
| Cc1ccc(C[S+]([O-])c2cccc[n+]2[O-])cc1C (centres unmarked) [Compound 89] | – | – | – | – | 2.50 µg/mL (≈ 9.57 µM) | – | 2.8 µg/mL (≈ 10.7 µM) | – | 20.0 | – | – | – |
| N#Cc1ccccc1CS(=O)(=O)c1cccc[n+]1[O-] [Compound 24] | – | – | 30.0 | – | 7.00 µg/mL (≈ 25.5 µM) | – | 9.5 µg/mL (≈ 34.6 µM) | – | >5 | – | – | – |
| Cc1c(Cl)c(Cl)c(CS(=O)(=O)c2cccc[n+]2[O-])c(Cl)c1Cl [Compound 49] | – | – | – | – | ≧.8 ug/ml | 37.5 | ≧.8 ug/ml | 37.5 | 5.0 | – | – | – |
| Cc1ccc(C)c(C(C)S(=O)(=O)c2cc(C)cc(C)[n+]2[O-])c1 (centres unmarked) [Compound 81] | – | – | – | – | ≧20 ug/ml | 37.5 | >20.0 µg/mL | 0.0 | 8.6 | – | – | – |
